From patent US20060189811A1, “Process for producing 1,2,4-triazole compound and intermediate therefor” (FUJIYAKUHIN CO., LTD., priority 2004, published 2006)

System: serum uric acid level
Assay: Serum uric acid level-lowering action
Type: in vivo
Conditions: male wister rats, oral 0.3 mg/5 mL/Kg in 0.5% MC, blood collected six hours after administration, vs MC group
Description: Serum Uric Acid Level-Lowering Action
To male wister rats of 7 weeks old (4 rats per group) was orally administered compulsorily a test substance suspended in 0.5% aqueous solution of methyl cellulose (MC) in such an amount as to provide 0.3 mg/5 mL/Kg by using a stomach sonde. Six hours after the administration of the test substance, a blood sample was collected from the orbital vein. After allowing to stand at room temperature for 1 hour, the blood sample was centrifuged at 2000×g for 10 minutes to collect serum. […] Lowering rate of serum uric acid level (%)=(1-average serum uric acid level of the group administered with test compound/average serum uric acid level of the group administered with MC)×100

Cc1ccc(S(=O)(=O)O)cc1.N#Cc1cc(-c2nc(-c3ccncc3)n[nH]2)ccn1 [Example 2, 5-(2-cyano-4-pyridyl)-3-(4-pyridyl)-1,2,4-triazole p-toluenesulfonate]
Lowering rate of serum uric acid level: 51.1%
